Values quoted from earlier work, collected in paper PMC10287555, “Camonsertib in DNA damage response-deficient advanced solid tumors: phase 1 trial results” (Nature Medicine, 2023).

Test system: advanced solid tumors
Conditions: combination with gemcitabine; cited from earlier work

## CNCc1ccc(-c2cc(-c3nc(-c4ccc(S(=O)(=O)C(C)C)cc4)cnc3N)on2)cc1 [berzosertib]
  Response rate in TMB-H NSCLC versus patients without elevated TMB: higher response rates
